Laboratory results as given in paper PMC12606464, “Investigating NFE2L1 activators for targeted protein aggregate clearance: a follow-up study” (RSC Medicinal Chemistry, 2025).

What was measured:
[1] = test system: SKN-1A; assay: rpt-3p::GFP reporter in C. elegans strain GR2183; format: in vivo, Caenorhabditis elegans
Source text: Firstly, we investigated whether RUN-89 triggers SKN-1A activation in C. elegans by using the GR2183 strain. By using this strain, the activation of SKN-1A is indicated by GFP expression, which is driven by the promoter of the proteasome subunit gene (rpt-3p::GFP).[80,81]
Figure S9. RUN-89 activates the NFE2L1 orthologue gene SKN-1A in C. elegans.
In the GR2183 strain, activation of the SKN-1A is reported by the expression of GFP under the control of the proteasome subunit gene promoter (rpt-3p::GFP). Animals were treated with 25 µM RUN-89 or DMSO (vehicle control) for 24 hours with subsequent microscopic analysis.
Results of relative GFP fluorescence intensity per single animal are presented. Overall, 71 animals (n | DMSO = 20, RUN-89 = 21) from three independent experiments ( N) were analyzed.
The two dashed horizontal lines indicate the interquartile range, and the thick horizontal line represents the median. A significant increase in fluorescence intensity after RUN-89 treatment was verified by a Kolmogorov-Smirnov test. ***p<0.001. […]
Transgenic GR2183 worms carrying the reporter gene (rpt -3p::GFP) were exposed to RUN-89 for 24 hours and for AM140 (rmIs132 [unc-54p::Q35::YFP]) to aged 6 days under treatment to establish protein aggregation model. The worms were then anesthetized with […] sodium azide and placed on glass slides with 5% agar for fluorescence microscope observation. […]

[2] = test system: Q35-YFP foci; assay: Q35-YFP aggregation in C. elegans strain AM140; format: in vivo, Caenorhabditis elegans
Description: Furthermore, we explored the role of RUN-89 in preventing huntingtin protein aggregation in C. elegans. For this AM140 strain, stably expressing aggregation-prone 35-glutamine long repeats marked with yellow fluorescence protein (Q35-YFP) were used.[82,83] A six-day treatment with 50 μM RUN-89 or a vehicle control was conducted, followed by microscopy analysis. […] These findings highlight the substantial impact of RUN-89 on foci formation or persistence, further supporting its role in suppressing pathological clustering in protein aggregation diseases or reducing stress-response assemblies.
Fig. 5 RUN-89 prevents protein aggregation and increases stress resistance in C. elegans. (A) The AM140 strain expressing aggregation-prone Q35-YFP was treated with 50 μM RUN-89 or the vehicle for 6 days, followed by microscopy analysis. Overall, 959 Q35-YFP foci (DMSO = 517; RUN-89 = 442) were identified in 102 animals (DMSO: N = 3 populations, n = 55 animals in total; RUN-89: N = 3 populations, n = 47 animals in total). The two dashed horizontal lines indicate the interquartile range, and the thick horizontal line represents the median. The Kolmogorov–Smirnov test verified a significant reduction of surface and integrated optical density of foci after RUN-89 treatment. (B) Representative images of two animals per treatment condition. Images were taken on the same day, using identical settings for the instruments used. (C) Protective effect of RUN-89 against juglone and paraquat-induced stress. A synchronized population of N2 wild-type worms was exposed to 50 μM RUN-89 for 24 hours to protect against acute oxidative stress triggered by 180 μM juglone and 200 mM paraquat. The mortality was monitored hourly over a 12 hour period. […] Results were analyzed using the Kaplan–Meier method and are presented as survival percentages with standard errors. […]
Transgenic GR2183 worms carrying the reporter gene (rpt -3p::GFP) were exposed to RUN-89 for 24 hours and for AM140 (rmIs132 [unc-54p::Q35::YFP]) to aged 6 days under treatment to establish protein aggregation model. The worms were then anesthetized with […] sodium azide and placed on glass slides with 5% agar for fluorescence microscope observation. The expression of the rpt-3p::GFP reporter in worms was directly related to the intensity of green fluorescence. Images were captured using a Zeiss Axioskop 2 Plus fluorescence microscope and a Zeiss Axio Observer A1 microscope designed for epifluorescence. Image analysis was performed to assess variations in aggregation (both the count and volume of aggregates) and fluorescence signal intensity using ImageJ software (https://imagej.nih.gov/ij/). […]

[3] = AM140, 50 μM, six-day treatment, versus DMSO

For `COc1ccc(/C=C2\CC(NC(=O)C3CCCC3)C/C(=C\c3ccc(OC)c(OC)c3)C2=O)cc1OC` (stereo not drawn) [RUN-89], the “Average relative fluorescence intensity per GR2183 animal” value ([1]; 25 μM, 24 h, 20 °C, young adults, versus vehicle) was “significantly higher”, the “Median rpt-3p::GFP (SKN-1A reporter)” value ([1]; GR2183, DMSO median = 100.00, Figure S9) was 114.62 and the “Q35-YFP foci relative fluorescence density” value [2, 3] was “significant decrease”. The “Q35-YFP foci surface area” value [2, 3] was “significant decrease”, the “Q35-YFP intensity, median” value ([2]; C. elegans, Fig. 5A, DMSO median 1.00) was 0.51 fold change to DMSO median and the “Q35-YFP foci surface, median” value ([2]; C. elegans, Fig. 5A, DMSO median 20) was 17 voxels.
